The assay has as its target T1, human kinase Mps-1 (Homo sapiens, UniProt P33981).
T1 construct: N-terminally GST-tagged human full length recombinant Mps-1 kinase; GST (N); purchased Invitrogen, Karslruhe, Germany PV4071
T1 sequence (P33981 1-857): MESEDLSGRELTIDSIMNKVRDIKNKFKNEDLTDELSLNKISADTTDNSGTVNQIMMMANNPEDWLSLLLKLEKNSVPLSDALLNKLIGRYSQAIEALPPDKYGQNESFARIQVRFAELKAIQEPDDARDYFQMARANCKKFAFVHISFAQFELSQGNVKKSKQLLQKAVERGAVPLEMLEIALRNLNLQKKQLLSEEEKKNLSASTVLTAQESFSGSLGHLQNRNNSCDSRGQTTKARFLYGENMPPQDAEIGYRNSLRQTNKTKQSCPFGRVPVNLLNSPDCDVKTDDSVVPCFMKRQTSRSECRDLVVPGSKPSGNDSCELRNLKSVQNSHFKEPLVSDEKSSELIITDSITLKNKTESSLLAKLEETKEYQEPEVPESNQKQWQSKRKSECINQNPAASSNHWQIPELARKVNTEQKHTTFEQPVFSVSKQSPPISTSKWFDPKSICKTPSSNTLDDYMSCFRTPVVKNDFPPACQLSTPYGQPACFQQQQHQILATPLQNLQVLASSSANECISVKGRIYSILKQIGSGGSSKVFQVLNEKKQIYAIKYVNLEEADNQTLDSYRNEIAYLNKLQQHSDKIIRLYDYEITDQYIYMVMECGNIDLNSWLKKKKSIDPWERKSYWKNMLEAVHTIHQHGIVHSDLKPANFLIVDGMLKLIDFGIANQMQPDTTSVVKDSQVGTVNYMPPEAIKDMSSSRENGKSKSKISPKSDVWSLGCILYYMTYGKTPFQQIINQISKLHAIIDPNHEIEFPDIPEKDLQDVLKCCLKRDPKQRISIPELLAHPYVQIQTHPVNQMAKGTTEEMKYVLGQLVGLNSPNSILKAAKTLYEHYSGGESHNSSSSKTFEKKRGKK
The assay is described as follows: Mps-1 kinase assay (TR-FRET). It is filed as biochemical. As to conditions: N-terminally GST-tagged human full length recombinant Mps-1; 10 μM ATP; 1 μM peptide substrate; 15 min pre-incubation; 60 min at 22° C. The gist of the method: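 TR-FRET read-out: after 1 h binding at 22° C, Eu-labelled anti-phospho-Ser/Thr antibody transfers to SA-XLent on the phosphorylated biotinylated peptide. The enzyme is GST-tagged full-length human Mps-1, typically about 1 nM final, in the linear range.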
A general note: Time-resolved FRET reads energy transfer from a long-lived donor to a nearby acceptor.

Usually IC50 stands for the concentration needed to halve the response being measured. For the molecule `COCCNc1nc(-c2ccccc2)cn2c(-c3ccc(C(=O)NC4CC4)cc3)cnc12` [Example 2-12, N-cyclopropyl-4-{8-[(2-methoxyethyl)amino]-6-phenylimidazo[1,2-a]pyrazin-3-yl}benzamide], the IC50 came to 1.7 nM.

As for `O=C(NC1CC1)c1ccc(-c2cnc3c(NCc4ccccc4F)nc(-c4ccccc4)cn23)cc1` [Example 2-13, N-cyclopropyl-4-{8-[(2-fluorobenzyl)amino]-6-phenylimidazo[1,2-a]pyrazin-3-yl}benzamide], the IC50 came out at 1.4 nM.

With `O=C(NC1CC1)c1ccc(-c2cnc3c(NCc4ccc(F)cc4)nc(-c4ccccc4)cn23)cc1` [Example 2-14, N-cyclopropyl-4-{8-[(4-fluorobenzyl)amino]-6-phenylimidazo[1,2-a]pyrazin-3-yl}benzamide], the IC50 worked out at 2.9 nM.

Regarding `O=C(NC1CC1)c1ccc(-c2cnc3c(NCc4ccccc4)nc(-c4ccccc4)cn23)cc1` [Example 2-15, 4-[8-(benzylamino)-6-phenylimidazo[1,2-a]pyrazin-3-yl]-N-cyclopropyl-benzamide], the IC50 was 3.8 nM.

As for `CCNc1nc(-c2ccccc2)cn2c(-c3ccc(C(=O)NC4CC4)cc3)cnc12` [Example 2-16, N-cyclopropyl-4-[8-(ethylamino)-6-phenylimidazo [1,2-a]pyrazin-3-yl]benzamide], the IC50 was 3.3 nM.

Turning to `O=C(NC1CC1)c1ccc(-c2cnc3c(NCCCO)nc(-c4ccccc4)cn23)cc1` [Example 2-17, N-cyclopropyl-4-{8-[(3-hydroxypropyl)amino]-6-phenylimidazo[1,2-a]pyrazin-3-yl}benzamide], the IC50 is 1.6 nM.

For `CN(C)CCCNc1nc(-c2ccccc2)cn2c(-c3ccc(C(=O)NC4CC4)cc3)cnc12` [Example 2-18, N-cyclopropyl-4-(8-{[3-(dimethylamino)propyl]amino}-6-phenylimidazo[1,2-a]pyrazin-3-yl)benzamide], the IC50 turned out to be 26.8 nM.

For `CC(=O)NCCNc1nc(-c2ccccc2)cn2c(-c3ccc(C(=O)NC4CC4)cc3)cnc12` [Example 2-19, 4-(8-{[2-(acetylamino)ethyl]amino}-6-phenylimidazo[1,2-a]pyrazin-3-yl)-N-cyclopropyl-benzamide], the IC50 stood at 8.1 nM.

For `O=C(NC1CC1)c1ccc(-c2cnc3c(NCc4ccc(C(F)(F)F)cc4)nc(-c4ccccc4)cn23)cc1` [Example 2-20, N-cyclopropyl-4-(6-phenyl-8-{[4-(trifluoromethyl)benzyl]amino}imidazo[1,2-a]pyrazin-3-yl)benzamide], the IC50 was determined as 38.6 nM.

As for `NS(=O)(=O)c1ccc(CCNc2nc(-c3ccccc3)cn3c(-c4ccc(C(=O)NC5CC5)cc4)cnc23)cc1` [Example 2-21, N-cyclopropyl-4-(6-phenyl-8-{[2-(4-sulfamoylphenyl)ethyl]amino}imidazo[1,2-a]pyrazin-3-yl)benzamide], the IC50 came to 9.1 nM.

With `O=C(NC1CC1)c1ccc(-c2cnc3c(NCc4ccc(OC(F)(F)F)cc4)nc(-c4ccccc4)cn23)cc1` [Example 2-22, N-cyclopropyl-4-(6-phenyl-8-{[4-(trifluoromethoxy)benzyl]amino}imidazo[1,2-a]pyrazin-3-yl)benzamide], the IC50 came to 217 nM.

For the molecule `O=C(NC1CC1)c1ccc(-c2cnc3c(NCC4CC4)nc(-c4ccccc4)cn23)cc1` [Example 2-23, N-cyclopropyl-4-{8-[(cyclo-propylmethyl)amino]-6-phenylimidazo[1,2-a]pyrazin-3-yl}benzamide], the IC50 is 2.7 nM.

Take `O=C(NC1CC1)c1ccc(-c2cnc3c(NCCc4ccccn4)nc(-c4ccccc4)cn23)cc1` [Example 2-24, N-cyclopropyl-4-(6-phenyl-8-{[2-(pyridin-2-yl)ethyl]amino}imidazo[1,2-a]pyrazin-3-yl) benzamide]: the IC50 turned out to be 10.3 nM.

For `O=C(NC1CC1)c1ccc(-c2cnc3c(NCCN4CCCC4)nc(-c4ccccc4)cn23)cc1` [Example 2-25, N-cyclopropyl-4-(6-phenyl-8-{[2-(pyrrolidin-1-yl)ethyl]amino}imidazo[1,2-a]pyrazin-3-yl)benzamide], the IC50 worked out at 27.4 nM.

As to `NS(=O)(=O)c1ccc(CNc2nc(-c3ccccc3)cn3c(-c4ccc(C(=O)NC5CC5)cc4)cnc23)cc1` [Example 2-26, N-cyclopropyl-4-{6-phenyl-8-[(4-sulfamoylbenzyl)amino]imidazo[1,2-a]pyrazin-3-yl}benzamide], the IC50 was 5.6 nM.

As to `O=C(NC1CC1)c1ccc(-c2cnc3c(NCc4ccccn4)nc(-c4ccccc4)cn23)cc1` [Example 2-27, N-cyclopropyl-4-{6-phenyl-8-[(pyridin-2-ylmethyl)amino]imidazo[1,2-a]pyrazin-3-yl} benzamide], the IC50 amounted to 3.3 nM.

On to `O=C(NC1CC1)c1ccc(-c2cnc3c(NCc4cccnc4)nc(-c4ccccc4)cn23)cc1` [Example 2-28, N-cyclopropyl-4-{6-phenyl-8-[(pyridin-3-ylmethyl)amino]imidazo[1,2-a]pyrazin-3-yl} benzamide], for which the IC50 amounted to 2.2 nM.

Take `CCN(CC)CCCNc1nc(-c2ccccc2)cn2c(-c3ccc(C(=O)NC4CC4)cc3)cnc12` [Example 2-29, N-cyclopropyl-4-(8-{[3-(diethylamino)propyl]amino}-6-phenylimidazo[1,2-a]pyrazin-3-yl)benzamide]: the IC50 came out at 14.8 nM.

Regarding `NC(=O)CNc1nc(-c2ccccc2)cn2c(-c3ccc(C(=O)NC4CC4)cc3)cnc12` [Example 2-30, 4-{8-[(2-amino-2-oxoethyl)amino]-6-phenylimidazo[1,2-a]pyrazin-3-yl}-N-cyclopropyl-benzamide], the IC50 turned out to be 19 nM.

Consider `O=C(NC1CC1)c1ccc(-c2cnc3c(NCCCc4ccccc4)nc(-c4ccccc4)cn23)cc1` [Example 2-31, N-cyclopropyl-4-{6-phenyl-8-[(3-phenylpropyl)amino]imidazo[1,2-a]pyrazin-3-yl} benzamide], for which the IC50 amounted to 34.8 nM.

As for `O=C(NC1CC1)c1ccc(-c2cnc3c(NCc4ccc5c(c4)OCO5)nc(-c4ccccc4)cn23)cc1` [Example 2-32, 4-{8-[(1,3-benzodioxol-5-ylmethyl)amino]-6-phenylimidazo[1,2-a]pyrazin-3-yl}-N-cyclopropyl-benzamide], the 50% inhibitory concentration (IC50) is 5.8 nM.

As to `COC(=O)CCNc1nc(-c2ccccc2)cn2c(-c3ccc(C(=O)NC4CC4)cc3)cnc12` [Example 2-33, methyl N-{3-[4-(cyclopropylcarbamoyl)phenyl]-6-phenylimidazo[1,2-a]pyrazin-8-yl}-beta-alaninate], the IC50 was 2.3 nM.

As for `CN(C)CCNc1nc(-c2ccccc2)cn2c(-c3ccc(C(=O)NC4CC4)cc3)cnc12` [Example 2-34, N-cyclopropyl-4-(8-{[2-(dimethylamino)ethyl]amino}-6-phenylimidazo[1,2-a]pyrazin-3-yl)benzamide], the IC50 stood at 35.7 nM.

As for `N#CCCNc1nc(-c2ccccc2)cn2c(-c3ccc(C(=O)NC4CC4)cc3)cnc12` [Example 2-35, 4-{8-[(2-cyanoethyl)amino]-6-phenylimidazo[1,2-a]pyrazin-3-yl}-N-cyclopropyl-benzamide], the IC50 came to 1 nM.

Consider `O=C(NC1CC1)c1ccc(-c2cnc3c(NCCCN4CCCC4)nc(-c4ccccc4)cn23)cc1` [Example 2-36, N-cyclopropyl-4-(6-phenyl-8-{[3-(pyrrolidin-1-yl)propyl]amino}imidazo[1,2-a]pyrazin-3-yl)benzamide], for which the IC50 was 28.4 nM.

In the case of `CCN(CC)CCCCNc1nc(-c2ccccc2)cn2c(-c3ccc(C(=O)NC4CC4)cc3)cnc12` [Example 2-37, N-cyclopropyl-4-(8-{[4-(diethylamino)butyl]amino}-6-phenylimidazo[1,2-a]pyrazin-3-yl)benzamide], the IC50 worked out at 14.1 nM.

Take `CN(C)CCCCNc1nc(-c2ccccc2)cn2c(-c3ccc(C(=O)NC4CC4)cc3)cnc12` [Example 2-38, N-cyclopropyl-4-(8-{[4-(dimethylamino)butyl]amino}-6-phenylimidazo[1,2-a]pyrazin-3-yl)benzamide]: the IC50 is 13.2 nM.

For `O=C(NC1CC1)c1ccc(-c2cnc3c(NCCc4cccs4)nc(-c4ccccc4)cn23)cc1` [Example 2-39, N-cyclopropyl-4-(6-phenyl-8-{[2-(thiophen-2-yl)ethyl]amino}imidazo[1,2-a]pyrazin-3-yl)benzamide], the IC50 was found to be 19.4 nM.

As for `O=C(NC1CC1)c1ccc(-c2cnc3c(NCCOc4ccccc4)nc(-c4ccccc4)cn23)cc1` [Example 2-40, N-cyclopropyl-4-{8-[(2-phenoxyethyl)amino]-6-phenylimidazo[1,2-a]pyrazin-3-yl}benzamide], the IC50 came to 9.8 nM.
